Results published in patent US9682961B2, “Quinazoline derivative” (CARNA BIOSCIENCES, INC., priority 2013, dated 2017).

tested on: Wnt/β-catenin signaling pathway; assay: TCF-luciferase reporter gene assay (Wnt-3a stimulated HEK 293 cells); assay type: cell-based; settings: Homo sapiens, HEK293, Wnt-3a stimulation, read-out: Inhibitory activity against the Wnt/β-catenin signaling pathway
Experimental: Evaluation of inhibitory activity of the compounds of the present invention against the Wnt/β-catenin signaling pathway was performed by evaluating the inhibitory activity of the compounds of the present invention against the Wnt/β-catenin signaling pathway activated by the Wnt-3a ligand using a commercially available TCF-luciferase reporter gene assay system.
In a T75 flask, HEK 293 cells (ATCC No. CRL-1573) were added to a DMEM medium (manufactured by NACALAI TESQUE, INC., No. 08459-35) supplemented with 10% FBS (AusGeneX PTY LTD.) and 1% Penicillin/Streptomycin (NACALAI TESQUE, INC.). The cells in the flask were cultured in a 5% CO2 incubator.
The cultured HEK 293 cells were diluted with a DMEM medium supplemented with only 10% FBS so as to have a cell concentration of 2×10^5 cells/mL, and 100 μL each of the diluted cells were seeded into respective wells of 96-well plates (PerkinElmer Inc., ViewPlate No. 6005181), followed by culturing overnight in the 5% CO2 incubator. To an OptiMEM medium (Invitrogen® No. 11058), pGL4.49 [luc2p/TCF-LEF-RE/Hygro] plasmid DNA (Promega Corporation) and FuGENE® HD (Promega No. E2691) were added so as to have concentrations of 1 μg/mL and 3 μg/mL, respectively, to prepare a transfection solution as described in the protocol attached to the reagent. To the respective wells containing the HEK 293 cells cultured overnight, 100 μL each of the transfection solution was added gently, followed by culturing overnight in the 5% CO2 incubator to perform transfection.
To a DMEM medium, 0.5% charcoal/dextran treated Fetal Bovine Serum (Thermo Scientific No. SH30068.02) and LiCl (Sigma-Aldrich No. L9650) were added to prepare a LiCl-containing medium (final concentration of LiCl: 10 mM). The medium in the respective wells of the HEK 293 cells cultured overnight and transfected with a reporter gene was removed by decantation. The LiCl-containing medium (90 μL) was added gently to each well, followed by culturing overnight in the 5% CO2 incubator.
A DMSO stock solution of the compound to be tested was diluted 100-fold with a LiCl-containing medium so as to prepare a solution of the compound to be tested, which is 10 times the test concentration. Further, Recombinant Mouse Wnt-3a (R&D Systems, Inc. #1324-WN) was dissolved in a 0.1% BSA-PBA solution so as to have a concentration of 40 μg/mL, and the resultant solution was diluted with a LiCl-containing medium so as to have a concentration of 100 ng/mL, to prepare a Wnt-3a solution. To each well of the HEK 293 cells cultured overnight in the LiCl-containing medium, 10 μL each of the solution of the compound to be tested was added, followed by culturing in the 5% CO2 incubator for 2 hours (the final concentration of the compound to be tested: 3-0.03 μM). Thereafter, 10 μL each of the Wnt-3a solution was added to the respective wells, followed by further culturing for 5 hours.
Using ONE-Glo™ Luciferase Assay System (Promega Corporation, No. E6110), the luciferase activity of the cells in the wells was measured by a microplate reader (Synergy H1, BioTek Instruments, Inc.) An IC50 value was calculated from the luminescence intensity of each compound concentration, supposing that the luminescence intensity of a group with no addition of the compound and with Wnt-3a stimulation was 100%, and that the luminescence intensity of a group with no addition of the compound and with no Wnt-3a stimulation was 0%.

Compound | IC50 [µM]
Cc1nc2c(Br)cc(Nc3ncc4cccc(O[C@H]5CC[C@@H](O)CC5)c4n3)cc2[nH]1 [Example 19, cis-4-({2-[(4-bromo-2-methyl-1H-benzo[d]imidazol-6-yl)amino]quinazolin-8-yl}oxy)cyclohexanol] | 1 to 3
O[C@H]1CC[C@@H](Oc2cccc3cnc(Nc4ccc5nc(C(F)(F)F)[nH]c5c4)nc23)CC1 [Example 26, cis-4-((2-{[2-(trifluoromethyl)-1H-benzo[d]imidazol-6-yl]amino}quinazolin-8-yl)oxy)cyclohexanol] | 1 to 3
C[C@H](O)c1nc2ccc(Nc3ncc4cccc(O[C@H]5CC[C@@H](O)CC5)c4n3)cc2[nH]1 [Example 27, cis-4-{[2-({2-[(S)-1-hydroxyethyl]-1H-benzo[d]imidazol-6-yl}amino)quinazolin-8-yl]oxy}cyclohexanol] | 0.3 to 1
Cc1cc2nc[nH]c2cc1Nc1ncc2cccc(O[C@H]3CC[C@@H](O)CC3)c2n1 [Example 30, cis-4-({2-[(5-methyl-1H-benzo[d]imidazol-6-yl)amino]quinazolin-8-yl}oxy)cyclohexanol] | 0.3 to 1
O[C@H]1CC[C@@H](Oc2cc(F)cc3cnc(Nc4ccc5nc[nH]c5c4)nc23)CC1 [Example 32, cis-4-({2-[(1H-benzo[d]imidazol-6-yl)amino]-6-fluoroquinazolin-8-yl}oxy)cyclohexanol] | 0.3 to 1
O[C@H]1CC[C@@H](Oc2cccc3cnc(Nc4ccc5ncccc5c4)nc23)CC1 [Example 35, cis-4-{[2-(quinolin-6-ylamino)quinazolin-8-yl]oxy}cyclohexanol] | 0.3 to 1
Cc1ccc2cc(Nc3ncc4cccc(O[C@H]5CC[C@@H](O)CC5)c4n3)ccc2n1 [Example 38, cis-4-({2-[(2-methylquinolin-6-yl)amino]quinazolin-8-yl}oxy)cyclohexanol] | 0.3 to 1
O[C@H]1CC[C@@H](Oc2cccc3cnc(Nc4ccc5cnccc5c4)nc23)CC1 [Example 39, cis-4-{[2-(isoquinolin-6-ylamino)quinazolin-8-yl]oxy}cyclohexanol] | 0.3 to 1
O[C@H]1CC[C@@H](Oc2cccc3cnc(Nc4ccc5ccncc5c4)nc23)CC1 [Example 40, cis-4-{[2-(isoquinolin-7-ylamino)quinazolin-8-yl]oxy}cyclohexanol] | 1 to 3
O[C@H]1CC[C@@H](Oc2cccc3cnc(Nc4cccc5cnccc45)nc23)CC1 [Example 41, cis-4-{[2-(isoquinolin-5-ylamino)quinazolin-8-yl]oxy}cyclohexanol] | 0.3 to 1
O[C@H]1CC[C@@H](Oc2cccc3cnc(Nc4ccnc5cc(F)ccc45)nc23)CC1 [Example 45, cis-4-({2-[(7-fluoroquinolin-4-yl)amino]quinazolin-8-yl}oxy)cyclohexanol] | 0.3 to 1
COc1ccc2c(Nc3ncc4cccc(O[C@H]5CC[C@@H](O)CC5)c4n3)ccnc2c1 [Example 46, cis-4-({2-[(7-methoxyquinolin-4-yl)amino]quinazolin-8-yl}oxy)cyclohexanol] | 0.3 to 1

Second part, the compound after the results:

IC50 [µM] | Compound
< 0.3 | O[C@H]1CC[C@@H](Oc2cccc3cnc(Nc4ccc5[nH]c(CN6CCCC6)nc5c4)nc23)CC1 [Example 13, cis-4-[(2-{[2-(pyrrolidin-1-ylmethyl)-1H-benzo[d]imidazol-5-yl]amino}quinazolin-8-yl)oxy]cyclohexanol]
0.3 to 1 | OCc1nc2cc(Nc3ncc4cccc(O[C@H]5CC[C@@H](O)CC5)c4n3)ccc2[nH]1 [Example 14, cis-4-[(2-{[2-(hydroxymethyl)-1H-benzo[d]imidazol-5-yl]amino}quinazolin-8-yl)oxy]cyclohexanol]
0.3 to 1 | Cc1ccc2cnc(Nc3ccc4nc[nH]c4c3)nc2c1O[C@H]1CC[C@@H](O)CC1 [Example 17, cis-4-({2-[(1H-benzo[d]imidazol-6-yl)amino]-7-methylquinazolin-8-yl}oxy)cyclohexanol]
0.3 to 1 | Cc1nc2ccc(Nc3ncc4ccc(Br)c(O[C@H]5CC[C@@H](O)CC5)c4n3)cc2[nH]1 [Example 18, cis-4-({7-bromo-2-[(2-methyl-1H-benzo[d]imidazol-6-yl)amino]quinazolin-8-yl}oxy)cyclohexanol]
0.3 to 1 | Cc1nc2c(C)cc(Nc3ncc4cccc(O[C@H]5CC[C@@H](O)CC5)c4n3)cc2[nH]1 [Example 20, cis-4-({2-[(2,4-dimethyl-1H-benzo[d]imidazol-6-yl)amino]quinazolin-8-yl}oxy)cyclohexanol]
0.3 to 1 | COCc1nc2ccc(Nc3ncc4cccc(O[C@H]5CC[C@@H](O)CC5)c4n3)cc2[nH]1 [Example 25, cis-4-[(2-{[2-(methoxymethyl)-1H-benzo[d]imidazol-6-yl]amino}quinazolin-8-yl)oxy]cyclohexanol]
< 0.3 | OCc1cc(Nc2ncc3cccc(O[C@H]4CC[C@@H](O)CC4)c3n2)cc2[nH]cnc12 [Example 29, cis-4-[(2-{[4-(hydroxymethyl)-1H-benzo[d]imidazol-6-yl]amino}quinazolin-8-yl)oxy]cyclohexanol]
< 0.3 | O[C@H]1CC[C@@H](Oc2c(Br)ccc3cnc(Nc4ccc5nc[nH]c5c4)nc23)CC1 [Example 31]
< 0.3 | O[C@H]1CC[C@@H](Oc2cccc3cnc(Nc4ccc5scnc5c4)nc23)CC1 [Example 36, cis-4-{[2-(benzo[d]thiazol-5-ylamino)quinazolin-8-yl]oxy}cyclohexanol]
< 0.3 | O[C@H]1CC[C@@H](Oc2cccc3cnc(Nc4ccnc5ccccc45)nc23)CC1 [Example 37, cis-4-{[2-(quinolin-4-ylamino)quinazolin-8-yl]oxy}cyclohexanol]
< 0.3 | O[C@H]1CC[C@@H](Oc2c(F)ccc3cnc(Nc4ccc5ncsc5c4)nc23)CC1 [Example 42, cis-4-{[2-(benzo[d]thiazol-6-ylamino)-7-fluoroquinazolin-8-yl]oxy}cyclohexanol]
< 0.3 | O[C@H]1CC[C@@H](Oc2c(F)ccc3cnc(Nc4ccc5ncccc5c4)nc23)CC1 [Example 43, cis-4-{[7-fluoro-2-(quinolin-6-ylamino)quinazolin-8-yl]oxy}cyclohexanol]
< 0.3 | OCc1n[nH]c2cc(Nc3ncc4ccc(F)c(O[C@H]5CC[C@@H](O)CC5)c4n3)ccc12 [Example 44, cis-4-[(7-fluoro-2-{[3-(hydroxymethyl)-1H-indazol-6-yl]amino}quinazolin-8-yl)oxy]cyclohexanol]
